Source: paper PMC10907298 (Nature chemical biology, 2023)
“And” between values parts separate entries of the source, which are not always exact repeats. Identical values can stand only once. Values belong to the compound of their own block, whether it stands above or below them.

What was measured:
human STING (WT) = human STING (WT) (Homo sapiens, UniProt Q86WV6); experiment: ISRE reporter assay with STING co-transfection in HEK293T cells; format: cell-based; settings: hSTING, Figure S1f
[1] = biological target: hSTING(1–153)–mSTING(153–378) chimera (Homo sapiens, UniProt Q86WV6, A215V/A300E/A302V/A313V/A318T/A350V/D237N/D297E/D320G/E174G/E362R/E369D/G230I/G344N/H185L/H232R/I244V/K224M/K347M/K370Q/L189M/L202F/L222R/L247I/L333I/L346P/M214V/M357L/Q196R/Q276K/Q306R/R191S/R253P/S275A/S321N/S345A/S353P/T181M/T229N/T256V/T354P/T356V/V194G/V258I/V343M/V351A/Y182F/Y186H/Y274D); experiment: as above; format: cell-based, human/mouse; settings: for ISRE reporter activity, mean: h(1-153)/m(153-378)STING, Figure S1f
hSTING(1–153)–mSTING(153–378) chimera, sequence (Q86WV6 with tags, fused parts or gaps with the stated changes): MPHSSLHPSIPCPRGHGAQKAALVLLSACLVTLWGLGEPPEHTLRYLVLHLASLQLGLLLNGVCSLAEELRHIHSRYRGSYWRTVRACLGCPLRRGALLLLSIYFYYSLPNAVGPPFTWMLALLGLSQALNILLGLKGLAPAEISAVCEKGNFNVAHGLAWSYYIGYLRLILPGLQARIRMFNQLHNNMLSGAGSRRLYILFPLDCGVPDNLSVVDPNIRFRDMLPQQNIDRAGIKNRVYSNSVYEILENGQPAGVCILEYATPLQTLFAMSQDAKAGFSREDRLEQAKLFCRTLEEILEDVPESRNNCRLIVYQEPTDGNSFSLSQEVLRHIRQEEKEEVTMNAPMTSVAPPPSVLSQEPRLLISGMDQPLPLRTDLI

STING(TMEM173) = STING(TMEM173) (Homo sapiens, UniProt Q86WV6, G230A/R293Q/R71H); experiment: photoaffinity labeling and competition chemoproteomics in THP-1 cells; format: binding
STING(TMEM173), sequence (Q86WV6 whole entry R71H/G230A/R293Q): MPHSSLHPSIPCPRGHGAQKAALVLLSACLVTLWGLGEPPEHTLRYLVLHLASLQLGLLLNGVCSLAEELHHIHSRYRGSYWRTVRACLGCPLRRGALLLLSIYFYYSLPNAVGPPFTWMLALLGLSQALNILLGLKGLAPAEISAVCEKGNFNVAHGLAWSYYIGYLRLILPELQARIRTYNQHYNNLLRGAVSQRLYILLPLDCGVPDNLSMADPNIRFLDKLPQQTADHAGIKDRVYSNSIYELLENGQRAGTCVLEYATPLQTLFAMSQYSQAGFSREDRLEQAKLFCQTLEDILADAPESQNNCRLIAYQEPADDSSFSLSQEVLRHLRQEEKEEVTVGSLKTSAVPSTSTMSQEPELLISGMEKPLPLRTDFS

human STING = human STING (Homo sapiens, UniProt Q86WV6, G230A/R293Q/R71H); experiment: THP1-Dual ISRE-Luc reporter gene assay (primary screen and dose response); settings: for THP1-Dual reporter activity: single replicates (n=2); for AC50: THP1-Dual ISRE-Luc Assay
human STING, sequence (Q86WV6 whole entry R71H/G230A/R293Q, the tested form may be a part): as the sequence (Q86WV6 whole entry R71H/G230A/R293Q) above

[2] = biological target: TXNDC12 Thioredoxin domain-containing protein 12 (Homo sapiens, UniProt O95881); experiment: photoaffinity labeling and competition chemoproteomics in THP-1 cells; format: binding
TXNDC12 Thioredoxin domain-containing protein 12, sequence (O95881 27-172): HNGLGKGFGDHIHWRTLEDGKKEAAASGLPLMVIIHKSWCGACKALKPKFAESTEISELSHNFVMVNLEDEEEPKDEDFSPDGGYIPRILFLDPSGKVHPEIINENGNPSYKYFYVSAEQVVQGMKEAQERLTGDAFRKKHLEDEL

[3] = biological target: SLC25A13 Calcium-binding mitochondrial carrier protein Aralar2 (Homo sapiens, UniProt Q9UJS0); experiment: as above
SLC25A13 Calcium-binding mitochondrial carrier protein Aralar2, sequence (Q9UJS0 whole entry): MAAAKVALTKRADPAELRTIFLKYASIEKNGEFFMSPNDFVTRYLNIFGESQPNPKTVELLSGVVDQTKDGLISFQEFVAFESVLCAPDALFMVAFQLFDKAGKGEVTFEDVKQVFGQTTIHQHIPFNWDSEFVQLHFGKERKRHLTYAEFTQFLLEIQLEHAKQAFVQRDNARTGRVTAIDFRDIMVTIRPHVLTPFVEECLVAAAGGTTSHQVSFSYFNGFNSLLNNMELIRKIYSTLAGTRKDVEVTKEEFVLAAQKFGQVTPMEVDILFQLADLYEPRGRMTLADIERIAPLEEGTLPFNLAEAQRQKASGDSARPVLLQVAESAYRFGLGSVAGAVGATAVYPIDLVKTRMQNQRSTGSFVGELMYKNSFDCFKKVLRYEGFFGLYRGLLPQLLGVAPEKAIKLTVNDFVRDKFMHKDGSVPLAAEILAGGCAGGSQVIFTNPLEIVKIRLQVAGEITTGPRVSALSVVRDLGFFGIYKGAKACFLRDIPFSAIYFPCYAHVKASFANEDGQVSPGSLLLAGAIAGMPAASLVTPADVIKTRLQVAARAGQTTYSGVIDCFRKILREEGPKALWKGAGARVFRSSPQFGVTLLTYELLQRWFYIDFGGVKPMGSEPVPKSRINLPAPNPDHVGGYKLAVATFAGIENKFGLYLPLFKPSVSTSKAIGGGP

RABL6 Rab-like protein 6 = RABL6 Rab-like protein 6 (Homo sapiens, UniProt Q3YEC7); experiment: as above; format: binding
RABL6 Rab-like protein 6, sequence (Q3YEC7 whole entry): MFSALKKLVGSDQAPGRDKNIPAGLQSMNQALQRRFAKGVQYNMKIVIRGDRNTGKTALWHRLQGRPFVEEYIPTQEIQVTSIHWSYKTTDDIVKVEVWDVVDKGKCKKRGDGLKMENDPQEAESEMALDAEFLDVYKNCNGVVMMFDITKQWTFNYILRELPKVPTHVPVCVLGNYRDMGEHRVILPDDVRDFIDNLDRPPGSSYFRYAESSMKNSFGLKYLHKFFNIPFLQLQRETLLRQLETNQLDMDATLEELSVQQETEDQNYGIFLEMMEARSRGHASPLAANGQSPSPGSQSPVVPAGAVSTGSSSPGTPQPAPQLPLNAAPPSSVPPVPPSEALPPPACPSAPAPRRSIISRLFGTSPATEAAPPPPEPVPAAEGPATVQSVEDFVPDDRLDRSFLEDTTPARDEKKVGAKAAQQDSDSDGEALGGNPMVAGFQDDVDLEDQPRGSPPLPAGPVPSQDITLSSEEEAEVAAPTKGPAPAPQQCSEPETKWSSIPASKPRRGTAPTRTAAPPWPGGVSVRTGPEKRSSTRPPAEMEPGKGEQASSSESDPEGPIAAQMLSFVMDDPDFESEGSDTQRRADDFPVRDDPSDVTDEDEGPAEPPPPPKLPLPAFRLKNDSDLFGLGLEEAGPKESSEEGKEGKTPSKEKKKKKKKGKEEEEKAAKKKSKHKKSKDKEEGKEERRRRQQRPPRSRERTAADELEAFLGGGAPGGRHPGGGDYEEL

SYNE2 Nesprin-2 = SYNE2 Nesprin-2 (Homo sapiens, UniProt Q8WXH0); experiment: as above; format: binding
BMDM, WT mSTING = experiment: IP10 induction in bone marrow-derived macrophages; format: cell-based, mouse; settings: 50μM, n=1
BMDM, mSTING Indel/Indel = experiment: IP10 induction in bone marrow-derived macrophages; format: cell-based, mouse; settings: 50μM, n=1
[4] = tested on: BMDM, human STING knock-in; experiment: IP10 induction in bone marrow-derived macrophages; format: cell-based, mouse; settings: 50μM, n=1

human STING (WT), sequence (Q86WV6 whole entry): as the sequence (Q86WV6 whole entry R71H/G230A/R293Q) above, with H71R, A230G, Q293R counted along it

SMILES: Cc1ccc2c(=O)c3cccc(CC(=O)O)c3oc2c1C [DMXAA, 5,6-dimethylxanthenone-4-acetic acid, reference compound]
- ISRE reporter activity, mean (human STING (WT); Log[μM] 0): 1.3
- ISRE reporter activity, mean (human STING (WT); Log[μM] 0.3): 1.4
- ISRE reporter activity, mean (human STING (WT); Log[μM] 0.6): 1.2
- ISRE reporter activity, mean (human STING (WT); Log[μM] 0.9): 1.3
- ISRE reporter activity, mean (human STING (WT); Log[μM] 1.2): 1
- ISRE reporter activity, mean (human STING (WT); Log[μM] 1.5): 1.6
- ISRE reporter activity, mean (human STING (WT); Log[μM] 1.8): 1.2
- ISRE reporter activity, mean (human STING (WT); Log[μM] 2.1): 1.4
- ISRE reporter activity, mean (human STING (WT); Log[μM] 2.4): 1.5
- ISRE reporter activity, mean (human STING (WT); Log[μM] 2.7): 1.9
- ISRE reporter activity, mean ([1]; Log[μM] 0): 0.7
- ISRE reporter activity, mean ([1]; Log[μM] 0.3): 0.7
- ISRE reporter activity, mean ([1]; Log[μM] 0.6): 0.7
- ISRE reporter activity, mean ([1]; Log[μM] 0.9): 0.9
- ISRE reporter activity, mean ([1]; Log[μM] 1.2): 9.4
- ISRE reporter activity, mean ([1]; Log[μM] 1.5): 82.5
- ISRE reporter activity, mean ([1]; Log[μM] 1.8): 101.1
- ISRE reporter activity, mean ([1]; Log[μM] 2.1): 106.7
- ISRE reporter activity, mean ([1]; Log[μM] 2.4): 109.5
- STING activation in words ([1]; hSTING TMD–mSTING LBD chimera): responded fully

- competition of NVS-STG4 labeling in words (STING(TMEM173); 20 μM competitor, 1 μM NVS-STG4): competed
- THP1-Dual reporter activity (human STING; 97.7 nM): -1.082 and 21.604
- THP1-Dual reporter activity (human STING; 195 nM): -3.144 and -12.05
- THP1-Dual reporter activity (human STING; 391 nM): -15.339 and 25.944
- THP1-Dual reporter activity (human STING; 781 nM): 62.36 and 63.63
- THP1-Dual reporter activity (human STING; 1563 nM): 1502.2 and 1735.82
- THP1-Dual reporter activity (human STING; 3125 nM): 6139.8 and 5609.9
- THP1-Dual reporter activity (human STING; 6250 nM): 8825.5 and 7956
- THP1-Dual reporter activity (human STING; 12500 nM): 8733.31 and 7877.19
- AC50 (human STING): 2.7 µM
SMILES: CNc1ccccc1CS(=O)(=O)NC(=O)c1ccc(NCc2ccc(C3(C(C)(C)C)OCC(C)(C)CO3)cc2)c(OC)c1 [NVS-STG3]

- enrichment of STING(TMEM173) over no probe control (STING(TMEM173); 1 μM probe, pull-down): over 2 fold
- Abundance Ratio (log2): (DMSO) / (NJC652) (STING(TMEM173); TMEM173): -1.82
- Abundance Ratio (log2): (DMSO) / (NJC652) [2]: -0.18
- Abundance Ratio (log2): (DMSO) / (NJC652) [3]: -0.21
- Abundance Ratio (log2): (DMSO) / (NJC652) (RABL6 Rab-like protein 6): 0.01
- Abundance Ratio (log2): (DMSO) / (NJC652) (SYNE2 Nesprin-2): 0.26
- THP1-Dual reporter activity (human STING; 97.7 nM): -53.887 and -41.218
- THP1-Dual reporter activity (human STING; 195 nM): -52.59 and -42.841
- THP1-Dual reporter activity (human STING; 391 nM): -38.43 and -29.964
- THP1-Dual reporter activity (human STING; 781 nM): -39.736 and -25.431
- THP1-Dual reporter activity (human STING; 1563 nM): -32.277 and -48.463
- THP1-Dual reporter activity (human STING; 3125 nM): -20.873 and -28.245
- THP1-Dual reporter activity (human STING; 6250 nM): 1623.13 and 1111.27
- THP1-Dual reporter activity (human STING; 12500 nM): 4114.59 and 3953.84
- THP1-Dual reporter activity (human STING; 25000 nM): 2243.38 and 2653.78
- AC50 (human STING): 6.9 µM
SMILES: C#CCCC1(CCC(=O)NCCCS(=O)(=O)NC(=O)c2ccc(NCc3ccc(C4(C(C)(C)C)OCC(C)(C)CO4)cc3)c(OC)c2)N=N1 [NVS-STG4]

SMILES: Nc1nc2c(ncn2[C@@H]2O[C@@H]3COP(=O)(O)O[C@H]4[C@@H](O)[C@H](n5cnc6c(N)ncnc65)O[C@@H]4COP(=O)(O)O[C@@H]2[C@@H]3O)c(=O)[nH]1 [cGAMP, 2’,3’-cGMP-AMP, reference compound]
- IP10 (BMDM, WT mSTING): 3440.25 pg/mL
- IP10 (BMDM, mSTING Indel/Indel): 0 pg/mL
- IP10 ([4]; BMDM hSTING+/+): 2945 pg/mL
- IP10 ([4]; BMDM hSTING+/indel): 1331.5 pg/mL
